The text below walks through data of US7667052B2 (Eisai R&D Management Co., Ltd., priority 2003, dated 2010).

As a reminder, the IC50 is the point on the concentration scale where inhibition reaches its midpoint.

Structures are written as SMILES. Converted amounts (≈) assume the structure as drawn. Where two headings read alike, the source gives them in different places.

The test system of test [1] is VEGF production in DU145 human colon cancer cell. The test is described as follows: VEGF production suppressing action in various carcinoma cells, ELISA. Type of test: cell-based. As to conditions: DU-145, low oxygen 18 hours. On the procedure: (§1) WiDr human colon cancer cell, PC3 human prostate cancer cell, DU145 human […] cancer cell and HT1080 human […] cancer cell, which were cultured in DULBECCO-modified eagle medium (manufactured by DMEM SIGMA Co., Ltd.) containing 10% fetal calf serum, penicillin (100 unit/ml) and streptomycin (100 μg/ml) were dispensed in 96 well plates by 3×10^4 cells/well. After culturing at 37° C. overnight in a CO2 incubator (5% CO2), the media were removed, and 180 μl of the above-mentioned incubation solution was charged. After adding 20 μL of the above-mentioned incubation solution containing the test compound diluted with 3-fold succession, they were incubated in a low oxygen ([…]) incubator for 18 hours. The supernatants thereof were measured by an ELISA kit (Immunobiology Research Institute).
(§2) Concentration at which the amount of VEGF expressed by low oxygen stimulation was suppressed to 50% (IC50 value) was determined and results are shown in Table 10.
(ELISA stands for enzyme-linked immunosorbent assay.)

In test [2] the test system is VEGF production in WiDr human colon cancer cell. The description is as above. The test is classed as cell-based. As to conditions: low oxygen 18 hours. On the procedure: as §1, §2
For test [3], the system named is VEGF production in HT1080. The test is described as above. Type of test: cell-based. As to conditions: Homo sapiens; HT 1080, low oxygen 18 hours. On the procedure: as §1, §2
Test [4] has as its system VEGF production in PC3 human prostate cancer cell. The test is described as above. The test is classed as cell-based. As to conditions: PC 3, low oxygen 18 hours. On the procedure:
as §1, §2

Test [5] relates to human breast cancer BSY-1 cell. The experiment in a line: Solid cancer proliferation suppressing action, subcutaneous transplant. As to conditions: single administration, 10 mg/kg intravenous. Type of test: in vivo, mice. On the procedure:
In order to study solid cancer proliferation suppressing action of 11107B in vivo, human breast cancer BSY-1 cell was transplanted to the subcutaneous body sides of mice. The animals were grouped so that the average of the volumes of the respective groups became uniform, when it reached about 100 mm^3. Control group was made as 10 mice and 11107B-administering groups were made as 5 mice. 11107B was administrated for the 11107B-administering groups once by intravenous injection so as to be 10 mg/kg, and a vehicle was administered to the control group. The tumor volumes on the fifth day, eighth day, 12th day and 15th day were measured, and relative tumor volumes were determined setting the tumor volume at the initiation of administration as 1.

In test [6] the test system is transcription from VEGF promoter. The experiment in a line: VEGF transcription-suppressing activity, VEGF-PLAP reporter in U251/1-8 cell. Type of test: cell-based. As to conditions: Homo sapiens, U-251, U251/1-8 cell, PLAP activity, low oxygen 18 hours. The gist of the method:
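U251 glioma clone stably carrying a ~2.3 kb human VEGF promoter–secreted PLAP reporter, 4×10^4 cells/well, exposed to 3-fold dilutions of compound for 18 h under low oxygen. Supernatant PLAP read by chemiluminescence at pH 10.0; IC50 = 50% suppression, normoxia 0%, hypoxia 100%.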

Turning to `CCC(O)C(C)C1OC1CC(C)/C=C/C=C(\C)C1OC(=O)CC(O)CCC(C)(O)C(OC(C)=O)/C=C/C1C` (stereo not shown) [11107B], the IC50 was 1.05 ng/mL (≈ 1.96 nM) in test [1]; 0.65 ng/mL (≈ 1.21 nM) in test [2]; 1.89 ng/mL (≈ 3.52 nM) in test [3]; 0.71 ng/mL (≈ 1.32 nM) in test [4]; 1 to 100 nM in test [6] (read-out: IC50 values of VEGF transcription-suppressing activity (range given)); 1.8 nM in test [6] (read-out: VEGF transcription suppressing activity (IC50: nM)). In addition, in test [5], the “solid tumor suppression, in words” value is “showed the effect of suppressing solid tumor”.
